Measured values as given in patent US7820656B2, “Pharmaceutical composition comprising N-aryl N′ morpholino/piperidino thiocarbamide derivatives for treating type II diabetes” (priority 2004, dated 2010).

Key:
RAW 264.7 cells = experiment: Measurement of anti-inflammatory action (nitrites, Griess reaction, LPS-stimulated); format: cell-based; details: for Produced nitrites: 15 hours, control 3.3435, LPS 6.2775
Experimental: Nitrites accumulated in a cellular medium were measured as a marker of […] (NO) formation through a Griess reaction. RAW 264.7 cells were cultured in a medium containing DMEM, 10% FBS, penicillin (100 units/ml) and streptomycin sulfate (100 μg/ml) in a presence of 5% CO2, treated with N-aryl N′ morpholino/piperidino thiocarbamide derivatives in a content of 10 μg/ml and 100 μg/ml in a presence of LPS (1 μg/ml), followed by adding a Griess reagent 100 μl to the medium 100 μl 15 hours later to be cultured at room temperature for 10 minutes and measuring an absorbance at 540 nm. Nitrite content in a medium was evaluated by a standard curve using NaNO2.

HepG2 cells = experiment: Measurement of lipid peroxide (TBARS); format: cell-based; details: for Average content of TBARS (%): control 100.0; for decrease of TBARS content compared with control group: HepG2, 24 hours (FIG. 4)
Experimental: HepG2 cells were cultured to administer N(4′-chlorophenyl) N′ morpholino thiocarbamide (10 μg/ml-100 μg/ml). After 24 hours, a cellular culture solution was removed to wash HepG2 cells with a phosphate buffer solution (PBS), prior to adding 0.1% Triton X-100 to detach the cells. The separated cell extracts were mixed with 20% acetic acid, pH 3.5 and 0.78% aqueous thiobarbituric acid solution. The mixture was heated at 95° C. for 1 hour and centrifuged at 3000 rpm for 15 minutes. The absorbance of the red supernatant was measured at 532 nm (Anal Biochem, 1979, 95, 351-358).

HepG2 hepatocyte = experiment: Measurement of glycogenesis ability (glycogen content, absorbance at 490 nm); format: cell-based; details: for Glycogenesis (absorbance): absorbance at 490 nm, control 0.103; for Rate of Increase(%) of glycogenesis: versus control
Experimental: Thereto, ethanol was added to precipitate glycogen, followed by dissolving the precipitated glycogen in conc. sulfuric acid. Glucose produced was reacted with phenol to obtain a stained product. An absorbance of the stained product was measured at 490 nm (J Applied Physiol, 1970, 28, 234-236).

[1] = Measurement of body weight; format: in vivo; details: 80 mg/kg oral once a day for 3 consecutive weeks; administered group vs control (FIG. 6)
Experimental: Change of body weight was measured every week before and after N(4′-chlorophenyl) N′ morpholino thiocarbamide (80 mg/kg, PO) was administered.

insulin receptor = target: T1, insulin receptor (Mus musculus, UniProt P15208); experiment: Phosphorylation measurement of insulin receptor tyrosin residues (hepatic lysate, immunoprecipitation, western blot); format: in vivo; details: 80 mg/kg to mouse starved 16 hours, liver after 1 hour; compared with control (FIG. 5)
T1 construct: the mouse was dissected to separate a liver at 4° C; from tissue; host or cells: mouse liver (hepatic lysate)
T1 sequence (P15208 28-748 limits assumed): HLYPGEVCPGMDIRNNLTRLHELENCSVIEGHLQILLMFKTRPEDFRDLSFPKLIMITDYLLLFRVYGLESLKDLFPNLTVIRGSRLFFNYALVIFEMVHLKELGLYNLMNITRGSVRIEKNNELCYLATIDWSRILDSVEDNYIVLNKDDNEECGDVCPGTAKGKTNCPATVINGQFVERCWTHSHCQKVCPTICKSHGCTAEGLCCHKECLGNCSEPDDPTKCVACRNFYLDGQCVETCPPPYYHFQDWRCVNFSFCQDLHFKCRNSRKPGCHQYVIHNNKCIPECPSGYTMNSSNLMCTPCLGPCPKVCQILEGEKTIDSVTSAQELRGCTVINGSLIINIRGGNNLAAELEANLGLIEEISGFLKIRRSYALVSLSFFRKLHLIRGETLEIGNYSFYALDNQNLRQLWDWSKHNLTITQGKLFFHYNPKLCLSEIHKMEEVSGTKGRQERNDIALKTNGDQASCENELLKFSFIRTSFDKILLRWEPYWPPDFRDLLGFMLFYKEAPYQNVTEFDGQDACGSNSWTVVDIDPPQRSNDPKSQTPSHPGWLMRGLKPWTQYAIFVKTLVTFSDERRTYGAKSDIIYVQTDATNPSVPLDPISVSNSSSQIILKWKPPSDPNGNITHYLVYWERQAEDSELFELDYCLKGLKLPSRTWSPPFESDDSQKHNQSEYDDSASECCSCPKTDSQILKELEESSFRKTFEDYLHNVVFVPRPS
Experimental: N(4′-chlorophenyl) N′ morpholino thiocarbamide in a dose of 80 mg/kg was administered to a male IC mouse starved for 16 hours. After an hour passed, the mouse was dissected to separate a liver at 4° C. Hepatic homogenization was provided by a little modification of conventional method (Zhao, H., Xu, H., Moore, E., Meiri, N., Quon, M. J., Alkon, D., L., Insulin receptors and spatial memory. J. Biol. Chem. 274, 34893-34902, 1999). The separated liver was suspended in a buffer A containing 50 mM Tris HCl, pH 7.4, 1 mM EDTA, 1 mM EGTA, 150 mM NaCl, 1% Triton X-100, 0.5 mM PMSF, 1 mM Na3VO4, leupeptin and aprotinin 1 μg/ml, and homogenized using a Potter-Elvehjem homogenizer. The lysate was centrifuged at 10,000×g for 20 minutes. The supernatant was analyzed on proteins and preserved at −70° C.
An immunoprecipitation was carried out by a known technique (Kim S. J., Kahn, C. R. Insulin stimulates phosphorylation of c-Jun, c-Fos and Fos-related proteins in cultured adipocytes. J. Biol. Chem. 269, 11887-11892, 1994). An equal amount of proteins from hepatic lysate were cultured with an insulin receptor antibody at 4° C. for 1 hour, followed by thereto adding protein A-cephalos to precipitate the immune complex by a centrifuge. […]

mice = experiment: Measurement of lethal dose 50%; format: in vivo, mouse; details: oral, 50 mg/kg, 500 mg/kg and 5000 mg/kg, 10 mice per dose
Experimental: (§1) The number of dead animal was counted after N(4′-chlorophenyl) N′ morpholino thiocarbamide was orally administered to 10 mice per a dose in a dose of 50 mg/kg, 500 mg/kg, and 5000 mg/kg.

[2] = Measurement of lethal dose 50%; format: in vivo, mouse; details: mouse, in vivo; oral, mice
Experimental: as §1

mouse = experiment: Oral glucose tolerance test; format: in vivo; details: 80 mg/kg oral 1 h before glucose 2 g/kg oral; blood glucose at 30, 60, 120 min; compared with control (FIG. 1)
Experimental: A mouse was starved for 18 hours, prior to orally administering N(4′-chlorophenyl) N′ morpholino thiocarbamide to the mouse in a dose of 80 mg/kg. After an hour passed, Glucose of 2 g/kg was orally administered to measure blood glucose level in 30, 60, and 120 minutes using a blood glucose testing kit.

[3] = tested on: streptozotocin-induced diabetic mouse; experiment: Blood glucose lowering effect using a streptozotocin-induced diabetic mouse; format: in vivo; details: 80 mg/kg oral a day, 5 days a week, 3 consecutive weeks; STZ control almost 550 mg/dl (FIG. 2)
Experimental: A mouse was used two weeks after streptozotocin (50 mM citrate buffer, pH 4.5) was intraperitoneally administered to the mouse (J Gene Med. 2003, 5, 417-424). […] Change of blood glucose level was measured once a week.

[4] = Dosage 10 ug/ml with LPS 1 μg/ml
[5] = Dosage 100 ug/ml with LPS 1 μg/ml

Row | Structure (SMILES) | % (produced nitrites; control 0, LPS 100) (RAW 264.7 cells; [4]) [%] | Produced nitrites (RAW 264.7 cells; [4]) [µM] | % (produced nitrites; control 0, LPS 100) (RAW 264.7 cells; [5]) [%] | Produced nitrites (RAW 264.7 cells; [5]) [µM] | Average content of TBARS (%) (HepG2 cells; Dosage 10 μg/ml) | Average content of TBARS (%) (HepG2 cells; Dosage 100 μg/ml) | Glycogenesis (absorbance) (HepG2 hepatocyte; Dosage 10 μg/ml) | Rate of Increase(%) of glycogenesis (HepG2 hepatocyte; Dosage 10 μg/ml) [%] | Glycogenesis (absorbance) (HepG2 hepatocyte; Dosage 100 μg/ml) | Rate of Increase(%) of glycogenesis (HepG2 hepatocyte; Dosage 100 μg/ml) [%] | change of body weight [1] | tyrosin phosphorylation of insulin receptors (insulin receptor) | number of dead animals (mice) | LD50 [2] [mg/kg] | blood glucose lowering effect in oral glucose tolerance test (mouse) | blood glucose level [3] [mg/dL] | decrease of TBARS content compared with control group (HepG2 cells; 10 μg/ml) [%] | decrease of TBARS content compared with control group (HepG2 cells; 100 μg/ml) [%] | increase of glycogenesis compared with control group (HepG2 hepatocyte; 10 μg/ml, 24 hours, HepG2 (FIG. 3)) [%]
1 | Cc1ccccc1NC(=S)NN1CCOCC1 [2-methylphenyl] | 81.17 | 5.3155 | 66.14 | 5.284 | 57.9 | 60.5 | 0216 | 110 | 0.238 | 131 |  |  |  |  |  |  |  |  | 
2 | COc1cccc(NC(=S)NN2CCOCC2)c1 [3-methoxyphenyl] | 81.19 | 5.7255 | 56.99 | 5.0155 | 81.9 | 63.9 | 0.191 | 85 | 0.202 | 96 |  |  |  |  |  |  |  |  | 
3 | Cc1cccc(NC(=S)NN2CCOCC2)c1 [3-methylphenyl] | 81.19 | 5.7255 | 61.83 | 5.1575 | 67.5 | 66.3 | 0.189 | 83 | 0.325 | 216 |  |  |  |  |  |  |  |  | 
4 | S=C(Nc1ccc(Cl)cc1)NN1CCOCC1 [N(4′-chlorophenyl) N′ morpholino thiocarbamide] | 4.81 | 3.4845 | −9.85 | 3.0545 |  |  |  |  |  |  | no difference in body weight | noticeable tyrosin phosphorylation of insulin receptors | no mouse was dead | > 5000 | remarkable blood glucose lowering effect | 300 to 400 | 10.2 | 32 | 49.89
5 | S=C(Nc1ccccc1)NN1CCOCC1 [phenyl (C11H15N3OS)] | 62.37 | 5.1735 | 48.93 | 4.779 |  |  | 0.301 | 195 | 0.225 | 118 |  |  |  |  |  |  |  |  | 
6 | S=C(Nc1ccccc1)NN1CCCCC1 [phenyl (C12H17N3S)] | 75.26 | 5.5515 | 74.20 | 5.5205 | 61.4 | 65.1 | 0.196 | 90 | 0.161 | 56 |  |  |  |  |  |  |  |  | 
